We go through 75 compounds from patent US7186831B2, “5-halo-2-alkyl[1,2,4]triazolo[1,5-a]pyrimidin-7-amines” (priority 2001, dated 2007).

This data set in a line: log P by HPLC. The class given is physicochemical.
Where [1] appears, read: EEC directive 79/831 Annex V. A8 by HPLC (gradient method, acetonitrile/0.1% aqueous phosphoric acid).
Setting [2] is: HPLC, gradient method, acetonitrile/0.1% aqueous phosphoric acid, EEC directive 79/831 Annex V. A8.

`Cc1nc2nc(Cl)c(-c3c(F)cccc3Cl)c(NCC(F)(F)F)n2n1` [compound 260] showed a logP under setting [1] of 2.77.
The compound `Cc1nc2nc(Cl)c(-c3c(F)cccc3F)c(NOCc3cccc(Cl)c3)n2n1` [compound 137] showed a logP under setting [2] of 3.21.
Take `CC1(C)CCN(c2c(-c3ccc(F)cc3F)c(Cl)nc3nc(C4CC4)nn23)CC1` [compound 615]: the log partition coefficient (logP) under setting [2] amounted to 4.67.
Under setting [1], `CCOC(=O)CN(c1c(-c2ccc(F)cc2F)c(Cl)nc2nc(C)nn12)C1CC1` [compound 414] came in with a log partition coefficient (logP) of 3.29.
Under setting [1], `CC(Nc1c(-c2ccc(F)cc2F)c(Cl)nc2nc(C(F)(F)F)nn12)C(F)(F)F` (stereo not drawn) [compound 358] registered a log partition coefficient (logP) of 3.89.
In turn, `Cc1nc2nc(Cl)c(-c3ccccc3Cl)c(NCC(C)(C)C)n2n1` [compound 211] had a logP under setting [2] of 3.57.
On to `C=C(C)CN(CC)c1c(-c2ccc(F)cc2F)c(Cl)nc2nc(C3CC3)nn12` [compound 491], for which the lipophilicity (logP) under setting [1] was found to be 4.37.
Compound `Cc1nc2nc(Cl)c(-c3ccccc3Cl)c(NC(C)C)n2n1` [compound 214] showed a log partition coefficient (logP) under setting [2] of 2.75.
For the compound `CCc1nc2nc(Cl)c(-c3c(F)cc(F)cc3F)c(N(CC)CC)n2n1` [compound 77], under setting [2], the log partition coefficient (logP) is given as 3.71.
`CCC(C)Nc1c(-c2ccc(F)cc2F)c(Cl)nc2nc(C3CC3)nn12` (stereo not drawn) [compound 647] returned a logP under setting [2] of 3.57.
Compound `COCCN(C)c1c(-c2c(F)cc(F)cc2F)c(Cl)nc2nc(C3CC3)nn12` [compound 468] had a lipophilicity (logP) under setting [1] of 3.29.
Consider `Cc1nc2nc(Cl)c(-c3c(F)cc(F)cc3F)c(N3C(C)C=CC3C)n2n1` (stereo not drawn) [compound 117], for which, under setting [2], the logP turned out to be 3.52.
`Cc1nc2nc(Cl)c(-c3ccccc3Cl)c(N3CCCC(C)C3)n2n1` (stereo not drawn) [compound 229] displayed a logP under setting [2] of 3.92.
With `Fc1ccc(-c2c(Cl)nc3nc(C4CC4)nn3c2NC2CCC(C(F)(F)F)CC2)c(F)c1` (stereo not drawn) [compound 659], the log partition coefficient (logP) under setting [2] stood at 3.93.
For `Cc1nc2nc(Cl)c(-c3ccccc3Cl)c(NCC(C)C)n2n1` [compound 210], under setting [2], the logP was 3.1.
Under setting [2], `CCCNc1c(-c2c(F)cccc2F)c(Cl)nc2nc(C)nn12` [compound 172] yielded a logP of 2.52.
As for `FC(F)CNc1c(-c2ccc(Cl)cc2Cl)c(Cl)nc2nc(C3CC3)nn12` [compound 741], under setting [2], the logP was 3.42.
The compound `C=C(C)CN(CC)c1c(-c2ccc(F)cc2F)c(Cl)nc2nc(C)nn12` [compound 96] showed a log partition coefficient (logP) under setting [2] of 3.73.
`CC(C)Nc1c(-c2c(F)cc(F)cc2F)c(Cl)nc2nc(C3CC3)nn12` [compound 464]: the logP under setting [1] was 3.35.
`Cc1nc2nc(Cl)c(-c3c(F)cccc3F)c(NCCC(F)(F)F)n2n1` [compound 184] had a log partition coefficient (logP) under setting [2] of 2.63.
Compound `CN(CC1CC1(Cl)Cl)c1c(-c2ccc(F)cc2F)c(Cl)nc2nc(C3CC3)nn12` (stereo not drawn) [compound 507] had a log partition coefficient (logP) under setting [1] of 4.18.
With `CCC(C)Nc1c(-c2ccc(F)cc2F)c(Cl)nc2nc(C)nn12` (stereo not drawn) [compound 194], the logP under setting [2] came to 3.01.
As for `C=C(C)CNc1c(-c2c(F)cccc2Cl)c(Cl)nc2nc(C)nn12` [compound 250], under setting [2], the logP stood at 2.8.
Under setting [1], `Cc1nc2nc(Cl)c(-c3ccc(F)cc3F)c(N3CCC(C)CC3)n2n1` [compound 287] had a logP of 3.75.
`Cc1nc2nc(Cl)c(-c3ccccc3F)c(N3CCCCC3)n2n1` [compound 384]: the logP under setting [1] worked out at 3.19.
Same read-out and setting: the figure for `Cc1nc2nc(Cl)c(-c3c(F)cccc3F)c(N3CCC(N(C)C)C3)n2n1` (stereo not drawn) [compound 306] is 1.18; for `Cc1nc2nc(Cl)c(-c3ccc(F)cc3F)c(NCC(F)(F)F)n2n1` [compound 406] it is 2.68; for `Fc1cc(F)c(-c2c(Cl)nc3nc(C4CC4)nn3c2N2CCCCO2)c(F)c1` [compound 485] it is 3.74.
The same measure, in the same setting: next, `Cc1nc2nc(Cl)c(-c3ccccc3F)c(NC3CCCC3)n2n1` [compound 385]: 3.11.
Under setting [2], `CC(C)C(C)Nc1c(-c2ccc(F)cc2Cl)c(Cl)nc2nc(C3CC3)nn12` (racemic) [compound 775] came in with a logP of 4.23.
Regarding `C=C(C)CN(CC)c1c(-c2ccccc2Cl)c(Cl)nc2nc(C3CC3)nn12` [compound 447], the log partition coefficient (logP) under setting [1] was determined as 4.59.
In turn, `Cc1nc2nc(Cl)c(-c3c(F)cccc3F)c(N(CCN)C(C)C)n2n1` [compound 571] gave a lipophilicity (logP) under setting [2] of 1.28.
For the compound `CC(Nc1c(-c2c(F)cccc2Cl)c(Cl)nc2nc(C3CC3)nn12)C(F)(F)F` (stereo not drawn) [compound 457], the logP under setting [1] was 3.59.
For `CC(C)CN(N)c1c(-c2c(F)cccc2F)c(Cl)nc2nc(C3CC3)nn12` [compound 754], under setting [2], the logP was 3.47.
`C=CCN(C)c1c(-c2c(F)cc(F)cc2F)c(Cl)nc2nc(C)nn12` [compound 152]: the logP under setting [2] was 3.18.
The compound `CCc1nc2nc(Cl)c(-c3c(F)cc(F)cc3F)c(N3CCCCC3)n2n1` [compound 73] registered a logP under setting [2] of 3.94.
`CCN(CCN)c1c(-c2ccc(F)cc2F)c(Cl)nc2nc(C3CC3)nn12` [compound 724] returned a logP under setting [2] of 1.47.
On the same count and under the same terms, next, `CN(C)CCN(C)c1c(-c2ccc(F)cc2F)c(Cl)nc2nc(C3CC3)nn12` [compound 661]: 1.56.
Under setting [1], `Cc1nc2nc(Cl)c(-c3c(F)cccc3Cl)c(N3CCC(F)CC3)n2n1` [compound 266] showed a logP of 3.07.
Consider `Cc1nc2nc(Cl)c(-c3c(F)cccc3Cl)c(NCC(C)(C)C)n2n1` [compound 249], for which the logP under setting [2] turned out to be 3.59.
In the case of `CC(=O)C1CCN(c2c(-c3c(F)cccc3F)c(Cl)nc3nc(C)nn23)CC1` [compound 442], under setting [1], the logP is recorded as 2.49.
As for `Cc1nc2nc(Cl)c(-c3ccc(F)cc3F)c(NC(C)C3CCCCC3)n2n1` (stereo not drawn) [compound 198], the logP under setting [2] worked out at 4.24.
Compound `Cc1nc2nc(Cl)c(-c3c(F)cc(F)cc3F)c(N(N)CC(C)C)n2n1` [compound 129] registered a lipophilicity (logP) under setting [2] of 3.06.
Regarding `C=C(C)CNc1c(-c2c(F)cccc2F)c(Cl)nc2nc(C3CC3)nn12` [compound 760], the lipophilicity (logP) under setting [2] amounted to 3.28.
On to `CCN(CCOC)c1c(-c2c(F)cccc2Cl)c(Cl)nc2nc(C3CC3)nn12` [compound 701], for which the lipophilicity (logP) under setting [2] amounted to 3.66.
On to `Cc1nc2nc(Cl)c(-c3c(F)cccc3F)c(N3CCC(O)C3)n2n1` (stereo not drawn) [compound 303], for which the logP under setting [1] is 1.73.
For the compound `Cc1nc2nc(Cl)c(-c3c(F)cccc3F)c(NC(C)C(C)C)n2n1` (stereo not drawn) [compound 684], under setting [2], the logP stood at 3.18.
`C=C(C)CNc1c(-c2ccccc2F)c(Cl)nc2nc(C)nn12` [compound 394] yielded a logP under setting [1] of 2.68.
Same read-out and setting: next, `Cc1nc2nc(Cl)c(-c3ccc(F)cc3F)c(N3CC=CCC3)n2n1` [compound 283]: 3.11.
For the compound `C=C(C)CN(CC)c1c(-c2c(F)cc(F)cc2F)c(Cl)nc2nc(C)nn12` [compound 14], under setting [2], the logP is 3.83.
As for `CC1C=CC(C)N1c1c(-c2ccccc2Cl)c(Cl)nc2nc(C3CC3)nn12` (stereo not drawn) [compound 580], under setting [2], the logP is on record as 4.19.
Turning to `CC(C)C(C)Nc1c(-c2ccc(Cl)cc2Cl)c(Cl)nc2nc(C3CC3)nn12` (single isomer, unassigned) [compound 757], under setting [2], the log partition coefficient (logP) is 4.72.
`CCCCN(CC)c1c(-c2c(F)cccc2F)c(Cl)nc2nc(C)nn12` [compound 344]: under setting [1], the logP is given as 3.82.
Under setting [1], `Cc1nc2nc(Cl)c(-c3ccccc3F)c(N3CCOCC3)n2n1` [compound 388] displayed a logP of 2.16.
The compound `C=CCN(CC)c1c(-c2ccc(F)cc2F)c(Cl)nc2nc(C3CC3)nn12` [compound 591] had a lipophilicity (logP) under setting [2] of 3.96.
Regarding `CC(C)(Nc1c(-c2c(F)cc(F)cc2F)c(Cl)nc2nc(C(F)(F)F)nn12)C(F)(F)F` [compound 105], the log partition coefficient (logP) under setting [2] is listed as 4.37.
Regarding `Cc1nc2nc(Cl)c(-c3c(F)cccc3Cl)c(NC3CC3)n2n1` [compound 258], the log partition coefficient (logP) under setting [2] stood at 2.77.
`CC(Nc1c(-c2ccc(Cl)cc2Cl)c(Cl)nc2nc(C3CC3)nn12)C(F)(F)F` (single isomer, unassigned) [compound 710] showed a logP under setting [2] of 4.12.
Compound `CC(C)CNc1c(-c2c(F)cc(F)cc2F)c(Cl)nc2nc(C3CC3)nn12` [compound 460] displayed a lipophilicity (logP) under setting [1] of 3.69.
`CCN(CCOC)c1c(-c2c(F)cccc2F)c(Cl)nc2nc(C)nn12` [compound 342] came in with a lipophilicity (logP) under setting [1] of 2.74.
In turn, `CCN(CCC#N)c1c(-c2c(F)cccc2F)c(Cl)nc2nc(C)nn12` [compound 569] showed a logP under setting [2] of 2.41.
Compound `Cc1nc2nc(Cl)c(-c3c(F)cc(F)cc3F)c(NCC(F)(F)F)n2n1` [compound 13] displayed a logP under setting [2] of 2.69.
The same measure, in the same setting: the figure for `Cc1nc2nc(Cl)c(-c3ccc(F)cc3F)c(NC3CCCCC3)n2n1` [compound 197] is 3.46.
For `CCN(CC1CCCO1)c1c(-c2c(F)cccc2Cl)c(Cl)nc2nc(C)nn12` (stereo not drawn) [compound 268], the logP under setting [1] is on record as 3.29.
Under setting [1], `Cc1nc2nc(Cl)c(-c3ccccc3F)c(NOCc3ccc(Cl)cc3)n2n1` [compound 368] gave a lipophilicity (logP) of 3.3.
`Cc1nc2nc(Cl)c(-c3c(F)cc(F)cc3F)c(N3CCCCC3C)n2n1` (stereo not drawn) [compound 164] had a logP under setting [2] of 3.81.
As to `CCCCNc1c(-c2ccc(F)cc2F)c(Cl)nc2nc(C)nn12` [compound 192], under setting [2], the log partition coefficient (logP) amounted to 3.04.
`CCCCONc1c(-c2ccccc2F)c(Cl)nc2nc(C)nn12` [compound 372] came in with a lipophilicity (logP) under setting [1] of 2.98.
Consider `Cc1nc2nc(Cl)c(-c3c(F)cccc3F)c(N3OCCC3C)n2n1` (stereo not drawn) [compound 578], for which the logP under setting [2] stood at 2.61.
As for `Cc1nc2nc(Cl)c(-c3ccccc3Cl)c(N3CCC(O)C3)n2n1` (stereo not drawn) [compound 245], the logP under setting [2] is 0.75.
`CC1=CCCN(c2c(-c3ccccc3Cl)c(Cl)nc3nc(C)nn23)C1` [compound 231] gave a logP under setting [2] of 3.7.
Same read-out and setting: the figure for `CCCCNc1c(-c2ccc(F)cc2F)c(Cl)nc2nc(C3CC3)nn12` [compound 645] is 3.6.
As to `Cc1nc2nc(Cl)c(-c3ccccc3F)c(NC3CCCCC3)n2n1` [compound 397], the log partition coefficient (logP) under setting [1] turned out to be 3.43.
Regarding `C=C(C)CNc1c(-c2c(F)cc(F)cc2F)c(Cl)nc2nc(C3CC3)nn12` [compound 466], the logP under setting [1] is 3.34.
Compound `COC(=O)C1CCCCN1c1c(-c2c(F)cccc2F)c(Cl)nc2nc(C)nn12` (stereo not drawn) [compound 320] displayed a log partition coefficient (logP) under setting [1] of 3.04.
